Measurements as given in patent publication US20080275248A1, “NOVEL 4BETA-AMINO PODOP[…] AS POTENTIAL ANTICANCER AGENTS AND A PROCESS FOR THE PREPARATION THEREOF” (priority 2007, published 2008).
≈ marks a conversion by molar mass, not a printed value. Where two headings read alike, the source gives them in different places.

Columns and labels:
Assay type in all cases: cell-based, human
Colo205 = assay: SRB cytotoxicity assay, colon Colo205; settings: for IC50: Homo sapiens, read-out: Activity status in terms of IC50 values, Colon Colo205
Description: (§1) Single cell suspension of the tumor cells grown in tissue culture were made, cells counted and cell count adjusted to 1×10 ^5 to 5×10^5 cells/ml. Ninety six (96) well plates were seeded with this cell suspension, each well receiving 100 μl of it. The plate was then be incubated at 37° C. temperature in CO2 incubator for 24 hours. Drugs were added at appropriate concentrations after 24-hour incubation followed by further incubation for 48 hours. Experiment was terminated by gently layering the cells in the wells with 30% TCA and plates were kept in refrigerator for 1 hour following which they were washed thoroughly with tap water, dried attained with 0.4% SRB in 1% acetic aid and finally, the bound SRB eluted with 10 mM tris. Absorbance was read at 540 nm, in the microtitre-plate reader. Optical density of drug-treated cells was compared with that of control cells and cell inhibition was calculated as percent values. Each compound was tested at 10, 20, 40 and 80 μg/ml in triplicate on human malignant cell lines.

DU145 = assay: SRB cytotoxicity assay, prostate DU145; settings: for IC50: Homo sapiens, read-out: Activity status in terms of IC50 values, Prostate DU145
Description: as §1

PC3 = assay: SRB cytotoxicity assay, prostate PC3; settings: for IC50: Homo sapiens, read-out: Activity status in terms of IC50 values, Prostate PC3
Description: as §1

Hop62 = assay: SRB cytotoxicity assay, lung Hop62; settings: for IC50: Homo sapiens, read-out: Activity status in terms of IC50 values, Lung Hop62
Description: as §1

MCF7 = assay: SRB cytotoxicity assay, breast MCF7; settings: for IC50: Homo sapiens, read-out: Activity status in terms of IC50 values, Breast MCF7
Description: as §1

Zr-75-1 = assay: SRB cytotoxicity assay, breast Zr-75-1; settings: for IC50: Homo sapiens, read-out: Activity status in terms of IC50 values, Breast Zr-75-1
Description: as §1

SiHa = assay: SRB cytotoxicity assay, cervix SiHa; settings: for IC50: Homo sapiens, read-out: Activity status in terms of IC50 values, Cervix SiHa
Description: as §1

HT1080 = assay: SRB cytotoxicity assay, oral HT1080; settings: for IC50: Homo sapiens, read-out: Activity status in terms of IC50 values, Oral HT1080
Description: as §1

DWD = assay: SRB cytotoxicity assay, oral DWD; settings: for IC50: Homo sapiens, read-out: Activity status in terms of IC50 values, Oral DWD
Description: as §1

[1] = Colo205 colon cancer cells, SRB assay, 48 hours drug incubation
[2] = DU145 prostate cancer cells, SRB assay, 48 hours drug incubation
[3] = PC3 prostate cancer cells, SRB assay, 48 hours drug incubation
[4] = Hop62 lung cancer cells, SRB assay, 48 hours drug incubation
[5] = MCF7 breast cancer cells, SRB assay, 48 hours drug incubation
[6] = Zr-75-1 breast cancer cells, SRB assay, 48 hours drug incubation
[7] = SiHa cervix cancer cells, SRB assay, 48 hours drug incubation
[8] = HT1080 oral cancer cells, SRB assay, 48 hours drug incubation
[9] = DWD oral cancer cells, SRB assay, 48 hours drug incubation

Compound | Activity status in terms of IC50 values, Colon Colo205 (Colo205; [1]) | Activity status in terms of IC50 values, Prostate DU145 (DU145; [2]) | Activity status in terms of IC50 values, Prostate PC3 (PC3; [3]) | Activity status in terms of IC50 values, Lung Hop62 (Hop62; [4]) | Activity status in terms of IC50 values, Breast MCF7 (MCF7; [5]) | Activity status in terms of IC50 values, Breast Zr-75-1 (Zr-75-1; [6]) | Activity status in terms of IC50 values, Cervix SiHa (SiHa; [7]) | Activity status in terms of IC50 values, Oral HT1080 (HT1080; [8]) | Activity status in terms of IC50 values, Oral DWD (DWD; [9]) | other results
COc1cc(C2c3cc4c(cc3C(Nc3ccc(-c5nc6ccccc6s5)c(Cl)c3)C3COC(=O)C23)OCO4)cc(OC)c1OC (stereo not drawn) [Compound 4c, 4β-[4″-(1″,3″-Benzothiazole-2″-yl)-3″-chloroanilino]-4-desoxypodophyllotoxin] | 7 µg/mL | >80 µg/mL | >80 µg/mL | 15 µg/mL | >80 µg/mL | >80 µg/mL | >80 µg/mL | 9 µg/mL | 5 µg/mL | –
COc1cc(C2c3cc4c(cc3C(Nc3ccc(-c5nc6ccccc6s5)cc3)C3COC(=O)C23)OCO4)cc(OC)c1O (stereo not drawn) [Compound 4b, 4′-O-Demethyl-4β-[4″-(1″,3″-benzothiazole-2″-yl)anilino]-4-desoxypodophyllotoxin] | 8 µg/mL | 13 µg/mL | >80 µg/mL | 8 µg/mL | >80 µg/mL | >80 µg/mL | >80 µg/mL | >80 µg/mL | 6 µg/mL | –
COc1cc(C2c3cc4c(cc3C(Nc3ccc(-c5nc6ccccc6s5)c(Cl)c3)C3COC(=O)C23)OCO4)cc(OC)c1O (stereo not drawn) [Compound 4d, 4′-O-Demethyl-4β-[4″-(1″,3″-benzothiazole-2″-yl)-3″-chloroanilino]-4-desoxypodophyllotoxin] | 7 µg/mL | >80 µg/mL | >80 µg/mL | 60 µg/mL | >80 µg/mL | >80 µg/mL | >80 µg/mL | 9 µg/mL | 7 µg/mL | –
COc1cc(C2c3cc4c(cc3C(Nc3ccc(-c5nc6ccccc6s5)cc3)C3COC(=O)C23)OCO4)cc(OC)c1OC (stereo not drawn) [Compound 4a, 4β-[4″-(1″,3″-benzothiazole-2″-yl)anilino]-4-desoxypodophyllotoxin] | 8 µg/mL | >80 µg/mL | >80 µg/mL | >80 µg/mL | >80 µg/mL | >80 µg/mL | >80 µg/mL | 8 µg/mL | 22 µg/mL | –
COc1cccc2c1C(=O)c1c(O)c3c(c(O)c1C2=O)C[C@@](O)(C(=O)CO)C[C@@H]3O[C@H]1C[C@H](N)[C@H](O)[C@H](C)O1 [ADR, Adriamycin, reference compound] | – | – | – | – | – | – | – | – | – | IC50 (Colo205; COLO 205, Colo205 colon cancer cells, SRB assay, 48 hours drug incubation): 5 µg/mL (≈ 9.2 µM); IC50 (DU145; DU-145, DU145 prostate cancer cells, SRB assay, 48 hours drug incubation): 6 µg/mL (≈ 11 µM); IC50 (PC3; PC-3, PC3 prostate cancer cells, SRB assay, 48 hours drug incubation): 5 µg/mL (≈ 9.2 µM); IC50 (Hop62; HOP-62, Hop62 lung cancer cells, SRB assay, 48 hours drug incubation): 5 µg/mL (≈ 9.2 µM); IC50 (MCF7; [5]): 5 µg/mL (≈ 9.2 µM); IC50 (Zr-75-1; [6]): 5 µg/mL (≈ 9.2 µM); IC50 (SiHa; [7]): 5 µg/mL (≈ 9.2 µM); IC50 (HT1080; HT-1080, HT1080 oral cancer cells, SRB assay, 48 hours drug incubation): 4 µg/mL (≈ 7.36 µM); IC50 (DWD; [9]): 2 µg/mL (≈ 3.68 µM)
COc1cc(C2c3cc4c(cc3C(Nc3ccc(-c5nc6ccc(F)cc6s5)cc3)C3COC(=O)C23)OCO4)cc(OC)c1O (stereo not drawn) [Compound 4h, 4′-O-Demethyl-4β-[4″-(6″-fluoro-1″,3″-benzothiazole-2″-yl)anilino]-4-desoxypodophyllotoxin] | 8 µg/mL | >80 µg/mL | >80 µg/mL | 10 µg/mL | >80 µg/mL | >80 µg/mL | >80 µg/mL | >80 µg/mL | 9 µg/mL | –
COc1cc(C2c3cc4c(cc3C(Nc3ccc(-c5nc6ccc(F)cc6s5)cc3)C3COC(=O)C23)OCO4)cc(OC)c1OC (stereo not drawn) [Compound 4g, 4β-[4″-(6″-Fluoro-1″,3″-benzothiazole-2″-yl)anilino]-4-desoxypodophyllotoxin] | 7 µg/mL | >80 µg/mL | >80 µg/mL | 30 µg/mL | >80 µg/mL | >80 µg/mL | >80 µg/mL | 9 µg/mL | 5 µg/mL | –
COc1cc([C@@H]2c3cc4c(cc3[C@H](O)[C@H]3COC(=O)[C@H]23)OCO4)cc(OC)c1OC [Compound 1, Podophyllotoxin, reference compound] | – | – | – | – | – | – | – | – | – | IC50 (Colo205; COLO 205, 48 h): 5 µg/mL (≈ 12.1 µM); IC50 (DU145; DU-145, 48 h): 2 µg/mL (≈ 4.83 µM); IC50 (PC3; PC-3, 48 h): 8 µg/mL (≈ 19.3 µM); IC50 (Hop62; HOP-62, 48 h): 13 µg/mL (≈ 31.4 µM); IC50 (MCF7; MCF7, 48 h): 3 µg/mL (≈ 7.24 µM); IC50 (Zr-75-1; ZR-75-1, 48 h): 7 µg/mL (≈ 16.9 µM); IC50 (SiHa; SiHa, 48 h): 23 µg/mL (≈ 55.5 µM); IC50 (HT1080; HT-1080, 48 h): 8 µg/mL (≈ 19.3 µM); IC50 (DWD; DWD, 48 h): 6 µg/mL (≈ 14.5 µM)
